The numbers were not newly measured in US20040028772A1, “Method for preparation of chewing gum with customer acceptable taste” (priority 2000, published 2004), which cites them from elsewhere.

Where a name gives a salt, the structure may show the parent alone.

Consider `CC1=C(/C=C/C(C)=C/C=C/C(C)=C/CO)C(C)(C)CCC1` [A-vitamin], for which the “water solubility (in words)” value is listed as “not water-soluble”.

`CC(=O)O.CC(=O)O.NC(=N\CCCCCC/N=C(N)/N=C(\N)Nc1ccc(Cl)cc1)/N=C(\N)Nc1ccc(Cl)cc1` [Chlorhexidine diacetate]: the “water-soluble / solubility in water” value is 1.9 g/100 ml.

In the case of `N=C(NCCCCCCNC(=N)NC(=N)Nc1ccc(Cl)cc1)NC(=N)Nc1ccc(Cl)cc1.O=C(O)[C@H](O)[C@@H](O)[C@H](O)[C@H](O)CO.O=C(O)[C@H](O)[C@@H](O)[C@H](O)[C@H](O)CO` [Chlorhexidine digluconat], the “water solubility (in words)” value is listed as “mixable”.

As to `[H]/N=C(\N/C(=N/[H])NCCCCCCNC(=N)NC(=N)Nc1ccc(Cl)cc1)Nc1ccc(Cl)cc1` [Chlorhexidine dihydrochloride], the “water-soluble / solubility in water” value is 0.06 g/100 ml.

`Clc1ccc(COC(Cn2ccnc2)c2ccc(Cl)cc2Cl)c(Cl)c1` (stereo not shown) [Miconazol]: the “water-soluble / solubility in water” value is reported as under 0.001 g/100 ml.

Consider `C[C@]12CC[C@H]3[C@@H](CCC4=CC(=O)CC[C@@H]43)[C@@H]1CC[C@@H]2O` [nandrolone], for which the “water solubility (in words)” value was “heavily soluble”.

For `CC(=O)Nc1ccc(O)cc1` [paracetamol], the “water-soluble / solubility in water” value is on record as 1.4 g/100 ml.
